US20040235882A1, “Amino-substituted imidazopyridines for the treatment of gastrointestial diseases” (priority 2001, published 2004)

Tested on: pentagastrin-stimulated acid secretion of the perfused rat stomach
Assay: Secretion-inhibiting action on the perfused rat stomach (pentagastrin-stimulated acid secretion, in vivo)
Conditions: anesthetized female CD rat, pentagastrin 1 μg/kg i.v. infusion, dose 3 μmol/kg i.d. (intraduodenal)
Text: Testing of the secretion-inhibiting action on the perfused rat stomach
In Table A which follows, the influence of the compounds according to the invention on the pentagastrin-stimulated acid secretion of the perfused rat stomach after intraduodenal administration in vivo is shown.
The abdomen of anesthetized rats (CD rat, female, 200-250 g; 1.5 g/kg i.m. urethane) was opened after tracheotomy by a median upper abdominal incision and a PVC catheter was fixed transorally in the esophagus and another via the pylorus such that the ends of the tube just projected into the gastric lumen. The catheter leading from the pylorus led outward into the right abdominal wall through a side opening.
After thorough rinsing (about 50-100 ml), warm (37° C.) physiological NaCl solution was continuously passed through the stomach (0.5 ml/min, pH 6.8-6.9; Braun-Unita I). The pH (pH meter 632, glass electrode EA 147; φ=5 mm, Metrohm) and, by titration with a freshly prepared 0.01 N NaOH solution to pH 7 (Dosimat 665 Metrohm), the secreted HCl were determined in the effluent in each case collected at an interval of 15 minutes.
The gastric secretion was stimulated by continuous infusion of […] (=1.65 ml/h) of i.v. pentagastrin (left femoral vein) about 30 min after the end of the operation (i.e. after determination of 2 preliminary fractions). […]

Row | Structure (SMILES) | Inhibition of acid secretion
1 | Cc1nc2c3c(ccn2c1C)[C@@H](N1CCOCC1)[C@@H](O)CN3 [Example 9, (7R,8S,9R)-8-Hydroxy-2,3-dimethyl-7-(4-morphollno)-7,8,9,10-tetrahydroimidazo[1.2-h]-[1.7]naphthyridine] | 44%
2 | Cc1nc2c3c(ccn2c1C)[C@@H](N(C)C)[C@@H](O)CN3 [Example 19, (7R,8S,9R)-8-Hydroxy-7-(dimethylamino)-2,3-dimethyl-7,8,9,10-tetrahydroimidazo[1.2-h]-[1.7]naphthyridine] | 64%
